Laboratory results reported in patent US10201507B2, “Modulators of intracellular chloride concentration for treating fragile X syndrome” (NEUROCHLORE, priority 2012, dated 2019).
Entries after “also recorded” stand apart in the source; their conditions may differ.

Key:
CA3 pyramidal cells = assay: Single GABAA channel recordings of driving force of GABA (DFGABA) in hippocampal slices, drug applied to slice; format: cell-based, mouse
Experimental: Mice lacking Fmr1 (referred to as Fmr1^−/−) were bred in our animal facility. […] For all experiments, Fmr1^−/− mice were used with wild-type littermates as a control group. The offspring were used for experiments at E18, P0, P2, P4, P7, P9, P15 and P30. Experiments were carried out on offspring of either sex and in a blind manner at E18 and P0.
Experiments were performed on fetuses and neonatal wild type and Fragile X mice from the embryonic day […] to the postnatal day P38 (term is E21). All of the research was performed in compliance with the national guidelines on human care and use of laboratory animals and approved by INSERM.
Hippocampal slices (300-500 μm thick) were prepared using a Microm tissue slicer (International GmbH, Germany) as described previously (Tyzio et al., 2006, 2008). Slices were kept in oxygenated (95% O2/5% CO2) artificial cerebrospinal fluid (ACSF) of the following composition (in mM): NaCl 126, KCl 3.5, CaCl2 2.0, MgCl2 1.3, NaHCO3 25, NaH2PO4 1.2 and glucose 11 (pH 7.4) at room temperature (20-22° C.) at least 1 hour before use.
For recordings, slices were placed into a conventional fully submerged chamber superfused with ACSF at a rate of 2-3 ml/min at room temperature. Patch clamp recordings from visually identified CA3 pyramidal cells in cell-attached configuration were performed using EPC-10 amplifier (HEKA Elektronik Dr. Schulze GmbH, Lambrecht/Pfalz, Germany). Patch pipette solution for recordings of single GABAA channels contained (in mM): NaCl 120, KCl 5, TEA-Cl 20, 4-aminopyridine 5, CaCl2 0.1, MgCl2 10, glucose 10, Hepes-NaOH 10 buffered to pH 7.2-7.3 and GABA 2 μM. Analysis of currents through single channels and current-voltage relationships were performed using Clampfit 9.2 (Axon Instruments, Union City, Calif.). Recordings were digitized (10 kHz) online with Digidata-1200 interface card (Axon Instruments, Union City, Calif.) and analyzed offline with Axon package, MiniAnalysis (S (Synaptsoft, Decatur, Ga.), and Origin (Microcal Software, Northampton, Mass.). […]

FXS mice = assay: Isolation-induced ultrasonic vocalizations (USVs) at P8 after maternal pretreatment; format: in vivo, mouse
Source text: To induce ultrasonic vocalizations, mouse pups were isolated individually from their mother on postnatal day 8, and were placed into an isolation box (23×28×18 cm) located inside a sound attenuating isolation cubicle (54×57×41 cm; Coulbourn Instruments, Allentown, Pa., USA), and evaluated for ultrasonic vocalizations during a three minute test. An ultrasound microphone (Avisoft UltraSoundGate Condenser microphone capsule […] Bioacoustics, Berlin, Germany), placed in the roof of the box, was sensitive to frequencies of 10 to 250 kHz. Vocalizations were recorded using the Avisoft Recorder software (version 4.2) with a sampling rate of 250 kHz in 16 bit format. For acoustical analysis, recordings were transferred to SASLab Pro (version 5.2; Avisoft Bioacoustics) and a fast Fourier transformation was conducted (512 FFT-length, 100% frame, Hamming window and 75% time window overlap). The accuracy of call detection was verified manually by an educated user. A Pearson correlation coefficient was computed to assess the relationship between Automatic and Manual analysis. There was 0.99 correlations between the two variables. A t postnatal day 8, waveform patterns of calls were examined in 45 sonograms from 4 groups of mice (WT, FXS, WT pretreated, FXS pretreated). Each call was identified as one of 10 distinct categories, and only the sonograms where mice emitted at least 50 calls were used for this evaluation. To test whether depolarizing actions of GABA were associated with neuronal excitation, the effect of the GABAA receptor agonist isoguvacine was tested. […] To test whether maternal treatment with bumetanide before delivery switches the action of GABA from excitatory to inhibitory in offsprings at P15, pregnant females were treated orally 1 day before delivery with bumetanide (2-2.5 mg/kg in drinking water) and juvenile offspring neurons recorded at P15. […] Therefore, excitatory actions of GABA during delivery produce long term deleterious effects on electrophysiological parameters of FXS juvenile neurons. In FXS mice, GABAergic inputs are excitatory and contribute to hyperexcitability of the network. Bumetanide decreases [Cl^-]i and consequently reduces contribution of excitatory GABAergic inputs in the overall network activity. Isolation and Ultrasonic vocalizations were induced in mice to determine behavioral effect of Bumetanide in a model of FXS. An increased probability of emitting downward and chevron calls in FXS pups than age matched WT (P8). This was rescued by maternal bumetanide pretreatment (FIG. 4, table 3). Therefore, elevated [Cl^-]i levels during delivery are involved in the pathogenesis of Fragile X syndrome.

[1] = system: child with Fragile X syndrome; assay: Clinical case study, efficacy scales (ABC, GRAM, CGI); format: in vivo, human; details: after 90 days, 0.5 mg twice a day
Experimental: This example is a case reports presenting the treatment by bumetanide of a child with Fragile X syndrome. Starting from the 5 Jan. 2011, the child received bumetanide twice a day (0.5 mg morning and 0.5 mg evening) during three months. Several biological tests were made at baseline (D0) and then after 7 days (D7), one month (M1), two months (M2) and three months (M3) of treatment. They checked orthostatic hypotension, allergy, cramps, asthenia, diarrhea, myalgia, arthralgia, vertigo and nausea. Blood tests included γ-glutamyltransferase, transaminases, alkaline phosphatases, glycemia, uric acid and creatine, in addition to blood Na^+ and K^+. Efficacy of the treatment was measured at baseline (D0) and after three months of treatment (M3) using the GRAM scale ([…] Regulation Adaptation Modulation) for analyzing the dysregulation of the activity in a child; the ABC scale (Aberrant Behavior Checklist) for assessing problem behaviors of children and adults with mental retardation; and the CGI scale (Clinical Global Impression) for assessing the clinical amelioration in a patient following a therapeutic treatment.

SMILES: CCCCNc1cc(C(=O)O)cc(S(N)(=O)=O)c1Oc1ccccc1 [bumetanide]
- Effect on DFGABA (in words) (CA3 pyramidal cells; FXS neurons at P0 (birth), oxytocin 1 μM): shift it to hyperpolarization; also recorded: fully blocked the depolarising DFGABA
- Effect on DFGABA (in words) (CA3 pyramidal cells; wild type pyramidal cells at P0): increases hyperpolarization
- Chevron calls, isolation-induced USVs (FXS mice; P8 FXS mice): 0.6 ± 0.1 (n = 13)
- Downward calls, isolation-induced USVs (FXS mice; P8 FXS mice): 10.2 ± 1.4 (n = 13)
- Increased probability of downward and chevron calls (in words) (FXS mice; P8 FXS pups): rescued
- Chevron calls, isolation-induced USVs (FXS mice; P8 WT mice): 0.5 ± 0.3 (n = 9)
- Downward calls, isolation-induced USVs (FXS mice; P8 WT mice): 13.5 ± 2.8 (n = 9)
- CGI result [1]: 2
- ABC results (Aberrant Behavior Checklist) ([1]; baseline 41): 27
- GRAM results ([1]; baseline 56): 31
